According to ChEMBL document CHEMBL3046063, “Synthesis and antimicrobial activity of 5-chloroindoline-2,3-dione derivatives” (2012):
Converted amounts (≈) assume the structure as drawn.

Columns and labels:
Assay type in all cases: functional
[1] = tested on: Micrococcus luteus; assay: Antimicrobial activity against Micrococcus luteus ATCC 4698 after 24 hr by broth dilution method; conditions: ATCC 4698, 24 h
[2] = tested on: Trichophyton longifusum; assay: Antimicrobial activity against Trichophyton longifusum ATCC 22397 after 24 hr by broth dilution method; conditions: ATCC 22397, 24 h
[3] = tested on: Aspergillus niger; assay: Antimicrobial activity against Aspergillus niger ATCC 9142 after 24 hr by broth dilution method; conditions: ATCC 9142, 24 h
[4] = tested on: Proteus mirabilis; assay: Antimicrobial activity against Proteus mirabilis ATCC 49565 after 24 hr by broth dilution method; conditions: ATCC 49565, 24 h
[5] = tested on: Bacillus cereus; assay: Antimicrobial activity against Bacillus cereus ATCC 11778 after 24 hr by broth dilution method; conditions: ATCC 11778, 24 h
[6] = tested on: Aspergillus awamori; assay: Antimicrobial activity against Aspergillus awamori ATCC 22342 after 24 hr by broth dilution method; conditions: ATCC 22342, 24 h
[7] = tested on: Candida albicans; assay: Antimicrobial activity against Candida albicans ATCC 10231 after 24 hr by broth dilution method; conditions: ATCC 10231, 24 h
[8] = tested on: Aspergillus fumigatus; assay: Antimicrobial activity against Aspergillus fumigatus after 24 hr by broth dilution method
[9] = tested on: Escherichia coli; assay: Antimicrobial activity against Escherichia coli ATCC 25922 after 24 hr by broth dilution method; conditions: ATCC 25922, 24 h
[10] = tested on: Klebsiella pneumoniae; assay: Antimicrobial activity against Klebsiella pneumoniae ATCC 13883 after 24 hr by broth dilution method; conditions: ATCC 13883, 24 h
[11] = tested on: Rhizoctonia solani; assay: Antimicrobial activity against Rhizoctonia solani ATCC 76131 after 24 hr by broth dilution method; conditions: ATCC 76131, 24 h
[12] = tested on: Aspergillus flavus; assay: Antimicrobial activity against Aspergillus flavus ATCC 15517 after 24 hr by broth dilution method; conditions: ATCC 15517, 24 h
[13] = tested on: Staphylococcus hominis; assay: Antimicrobial activity against Staphylococcus hominis ATCC 27844 after 24 hr by broth dilution method; conditions: ATCC 27844, 24 h
[14] = tested on: Proteus vulgaris; assay: Antimicrobial activity against Proteus vulgaris ATCC 13315 after 24 hr by broth dilution method; conditions: ATCC 13315, 24 h
[15] = tested on: Pseudomonas aeruginosa; assay: Antimicrobial activity against Pseudomonas aeruginosa ATCC 10145 after 24 hr by broth dilution method; conditions: ATCC 10145, 24 h
[16] = tested on: Bacillus spizizenii; assay: Antimicrobial activity against Bacillus subtilis subsp. spizizenii ATCC 6633 after 24 hr by broth dilution method; conditions: ATCC 6633, 24 h
[17] = tested on: Microsporum canis; assay: Antimicrobial activity against Arthroderma otae ATCC 11622 after 24 hr by broth dilution method; conditions: ATCC 11622, 24 h
[18] = tested on: Alternaria alternata; assay: Antimicrobial activity against Alternaria alternata ATCC 66868 after 24 hr by broth dilution method; conditions: ATCC 66868, 24 h
[19] = tested on: Staphylococcus aureus; assay: Antimicrobial activity against Staphylococcus aureus ATCC 25923 after 24 hr by broth dilution method; conditions: ATCC 25923, 24 h
[20] = tested on: Staphylococcus epidermidis; assay: Antimicrobial activity against Staphylococcus epidermidis ATCC 12228 after 24 hr by broth dilution method; conditions: ATCC 12228, 24 h
[21] = tested on: Fusarium solani; assay: Antimicrobial activity against Fusarium solani ATCC 38136 after 24 hr by broth dilution method; conditions: ATCC 38136, 24 h
[22] = tested on: Salmonella typhi; assay: Antimicrobial activity against Salmonella enterica subsp. enterica serovar Typhi ATCC 19430 after 24 hr by broth dilution method; conditions: ATCC 19430, 24 h
[23] = tested on: Trichoderma viride; assay: Antimicrobial activity against Hypocrea rufa ATCC 52440 after 24 hr by broth dilution method; conditions: ATCC 52440, 24 h
[24] = tested on: Bacillus pumilus; assay: Antimicrobial activity against Bacillus pumilus ATCC 14884 after 24 hr by broth dilution method; conditions: ATCC 14884, 24 h

O=C1Nc2ccc(Cl)cc2/C1=N/N1C(=O)C(Cl)C1c1ccc(F)cc1 (centres undefined)
MIC [1]: 18.8 µg/mL (≈ 49.6 µM)
MIC [2]: 9.37 µg/mL (≈ 24.8 µM)
MIC [3]: 4.68 µg/mL (≈ 12.4 µM)
MIC [4]: 9.37 µg/mL (≈ 24.8 µM)
MIC [5]: 18.8 µg/mL (≈ 49.6 µM)
MIC [6]: 4.68 µg/mL (≈ 12.4 µM)
MIC [7]: 4.68 µg/mL (≈ 12.4 µM)
MIC [8]: 9.37 µg/mL (≈ 24.8 µM)
MIC [9]: 18.8 µg/mL (≈ 49.6 µM)
MIC [10]: 18.8 µg/mL (≈ 49.6 µM)
MIC [11]: 9.37 µg/mL (≈ 24.8 µM)
MIC [12]: 4.68 µg/mL (≈ 12.4 µM)
MIC [13]: 9.37 µg/mL (≈ 24.8 µM)
MIC [14]: 18.8 µg/mL (≈ 49.6 µM)
MIC [15]: 18.8 µg/mL (≈ 49.6 µM)
MIC [16]: 9.37 µg/mL (≈ 24.8 µM)
MIC [17]: 9.37 µg/mL (≈ 24.8 µM)
MIC [18]: 4.68 µg/mL (≈ 12.4 µM)
MIC [19]: 18.8 µg/mL (≈ 49.6 µM)
MIC [20]: 18.8 µg/mL (≈ 49.6 µM)
MIC [21]: 9.37 µg/mL (≈ 24.8 µM)
MIC [22]: 9.37 µg/mL (≈ 24.8 µM)
MIC [23]: 9.37 µg/mL (≈ 24.8 µM)
MIC [24]: 18.8 µg/mL (≈ 49.6 µM)

O=C1Nc2ccc(Cl)cc2/C1=N/N1C(=O)CSC1c1ccc(Cl)cc1 (centres undefined)
MIC [1]: 18.8 µg/mL (≈ 47.8 µM)
MIC [2]: 4.68 µg/mL (≈ 11.9 µM)
MIC [3]: 4.68 µg/mL (≈ 11.9 µM)
MIC [4]: 18.8 µg/mL (≈ 47.8 µM)
MIC [5]: 9.37 µg/mL (≈ 23.9 µM)
MIC [6]: 9.37 µg/mL (≈ 23.9 µM)
MIC [7]: 4.68 µg/mL (≈ 11.9 µM)
MIC [8]: 4.68 µg/mL (≈ 11.9 µM)
MIC [9]: 9.37 µg/mL (≈ 23.9 µM)
MIC [10]: 18.8 µg/mL (≈ 47.8 µM)
MIC [11]: 9.37 µg/mL (≈ 23.9 µM)
MIC [12]: 4.68 µg/mL (≈ 11.9 µM)
MIC [13]: 9.37 µg/mL (≈ 23.9 µM)
MIC [14]: 37.5 µg/mL (≈ 95.6 µM)
MIC [15]: 9.37 µg/mL (≈ 23.9 µM)
MIC [16]: 37.5 µg/mL (≈ 95.6 µM)
MIC [17]: 4.68 µg/mL (≈ 11.9 µM)
MIC [18]: 4.68 µg/mL (≈ 11.9 µM)
MIC [19]: 18.8 µg/mL (≈ 47.8 µM)
MIC [20]: 18.8 µg/mL (≈ 47.8 µM)
MIC [21]: 9.37 µg/mL (≈ 23.9 µM)
MIC [22]: 9.37 µg/mL (≈ 23.9 µM)
MIC [23]: 9.37 µg/mL (≈ 23.9 µM)
MIC [24]: 9.37 µg/mL (≈ 23.9 µM)

O=C1Nc2ccc(Cl)cc2/C1=N/N1C(=O)CSC1c1ccccc1 (centres undefined)
MIC [1]: 37.5 µg/mL (≈ 105 µM)
MIC [2]: 18.8 µg/mL (≈ 52.4 µM)
MIC [3]: 18.8 µg/mL (≈ 52.4 µM)
MIC [4]: 75 µg/mL (≈ 210 µM)
MIC [5]: 37.5 µg/mL (≈ 105 µM)
MIC [6]: 18.8 µg/mL (≈ 52.4 µM)
MIC [7]: 9.37 µg/mL (≈ 26.2 µM)
MIC [8]: 18.8 µg/mL (≈ 52.4 µM)
MIC [9]: 37.5 µg/mL (≈ 105 µM)
MIC [10]: 37.5 µg/mL (≈ 105 µM)
MIC [11]: 37.5 µg/mL (≈ 105 µM)
MIC [12]: 37.5 µg/mL (≈ 105 µM)
MIC [13]: 75 µg/mL (≈ 210 µM)
MIC [14]: 75 µg/mL (≈ 210 µM)
MIC [15]: 37.5 µg/mL (≈ 105 µM)
MIC [16]: 75 µg/mL (≈ 210 µM)
MIC [17]: 37.5 µg/mL (≈ 105 µM)
MIC [18]: 37.5 µg/mL (≈ 105 µM)
MIC [19]: 37.5 µg/mL (≈ 105 µM)
MIC [20]: 37.5 µg/mL (≈ 105 µM)
MIC [21]: 18.8 µg/mL (≈ 52.4 µM)
MIC [22]: 75 µg/mL (≈ 210 µM)
MIC [23]: 37.5 µg/mL (≈ 105 µM)
MIC [24]: 75 µg/mL (≈ 210 µM)

O=C1Nc2ccc(Cl)cc2/C1=N/N1C(=O)C(Cl)C1c1ccco1 (centres undefined)
MIC [1]: 37.5 µg/mL (≈ 107 µM)
MIC [2]: 18.8 µg/mL (≈ 53.5 µM)
MIC [3]: 18.8 µg/mL (≈ 53.5 µM)
MIC [4]: 37.5 µg/mL (≈ 107 µM)
MIC [5]: 37.5 µg/mL (≈ 107 µM)
MIC [6]: 37.5 µg/mL (≈ 107 µM)
MIC [7]: 18.8 µg/mL (≈ 53.5 µM)
MIC [8]: 18.8 µg/mL (≈ 53.5 µM)
MIC [9]: 37.5 µg/mL (≈ 107 µM)
MIC [10]: 75 µg/mL (≈ 214 µM)
MIC [11]: 37.5 µg/mL (≈ 107 µM)
MIC [12]: 37.5 µg/mL (≈ 107 µM)
MIC [13]: 37.5 µg/mL (≈ 107 µM)
MIC [14]: 37.5 µg/mL (≈ 107 µM)
MIC [15]: 37.5 µg/mL (≈ 107 µM)
MIC [16]: 75 µg/mL (≈ 214 µM)
MIC [17]: 37.5 µg/mL (≈ 107 µM)
MIC [18]: 37.5 µg/mL (≈ 107 µM)
MIC [19]: 37.5 µg/mL (≈ 107 µM)
MIC [20]: 75 µg/mL (≈ 214 µM)
MIC [21]: 37.5 µg/mL (≈ 107 µM)
MIC [22]: 75 µg/mL (≈ 214 µM)
MIC [23]: 37.5 µg/mL (≈ 107 µM)
MIC [24]: 37.5 µg/mL (≈ 107 µM)

CN(C)c1ccc(C2C(Cl)C(=O)N2/N=C2\C(=O)Nc3ccc(Cl)cc32)cc1 (centres undefined)
MIC [1]: 18.8 µg/mL (≈ 46.5 µM)
MIC [2]: 4.68 µg/mL (≈ 11.6 µM)
MIC [3]: 9.37 µg/mL (≈ 23.2 µM)
MIC [4]: 18.8 µg/mL (≈ 46.5 µM)
MIC [5]: 18.8 µg/mL (≈ 46.5 µM)
MIC [6]: 9.37 µg/mL (≈ 23.2 µM)
MIC [7]: 4.68 µg/mL (≈ 11.6 µM)
MIC [8]: 4.68 µg/mL (≈ 11.6 µM)
MIC [9]: 9.37 µg/mL (≈ 23.2 µM)
MIC [10]: 9.37 µg/mL (≈ 23.2 µM)
MIC [11]: 9.37 µg/mL (≈ 23.2 µM)
MIC [12]: 4.68 µg/mL (≈ 11.6 µM)
MIC [13]: 18.8 µg/mL (≈ 46.5 µM)
MIC [14]: 9.37 µg/mL (≈ 23.2 µM)
MIC [15]: 9.37 µg/mL (≈ 23.2 µM)
MIC [16]: 18.8 µg/mL (≈ 46.5 µM)
MIC [17]: 4.68 µg/mL (≈ 11.6 µM)
MIC [18]: 4.68 µg/mL (≈ 11.6 µM)
MIC [19]: 18.8 µg/mL (≈ 46.5 µM)
MIC [20]: 9.37 µg/mL (≈ 23.2 µM)
MIC [21]: 9.37 µg/mL (≈ 23.2 µM)
MIC [22]: 9.37 µg/mL (≈ 23.2 µM)
MIC [23]: 4.68 µg/mL (≈ 11.6 µM)
MIC [24]: 9.37 µg/mL (≈ 23.2 µM)

O=C1Nc2ccc(Cl)cc2/C1=N/N1C(=O)CSC1c1ccccc1Cl (centres undefined)
MIC [1]: 300 µg/mL (≈ 765 µM)
MIC [2]: 150 µg/mL (≈ 382 µM)
MIC [3]: 75 µg/mL (≈ 191 µM)
MIC [4]: 300 µg/mL (≈ 765 µM)
MIC [5]: 150 µg/mL (≈ 382 µM)
MIC [6]: 150 µg/mL (≈ 382 µM)
MIC [7]: 150 µg/mL (≈ 382 µM)
MIC [8]: 150 µg/mL (≈ 382 µM)
MIC [9]: 150 µg/mL (≈ 382 µM)
MIC [10]: 150 µg/mL (≈ 382 µM)
MIC [11]: 75 µg/mL (≈ 191 µM)
MIC [12]: 150 µg/mL (≈ 382 µM)
MIC [13]: 150 µg/mL (≈ 382 µM)
MIC [14]: 300 µg/mL (≈ 765 µM)
MIC [15]: 150 µg/mL (≈ 382 µM)
MIC [16]: 300 µg/mL (≈ 765 µM)
MIC [17]: 75 µg/mL (≈ 191 µM)
MIC [18]: 150 µg/mL (≈ 382 µM)
MIC [19]: 300 µg/mL (≈ 765 µM)
MIC [20]: 150 µg/mL (≈ 382 µM)
MIC [21]: 150 µg/mL (≈ 382 µM)
MIC [22]: 150 µg/mL (≈ 382 µM)
MIC [23]: 75 µg/mL (≈ 191 µM)
MIC [24]: 150 µg/mL (≈ 382 µM)
